Assays:
[1] = test system: CRE-luciferase (luc) reporter; assay: CRE-luciferase reporter activity in primary hepatocytes; type: cell-based, mouse; details: response to glucagon
Method: HEK293T (ATCC) cells were cultured in DMEM containing 10% FBS (HyClone), […] penicillin-streptomycin. Mouse primary hepatocytes were isolated and cultured as previously described (18). Cellular fractionation studies were conducted as previously reported (18). For reporter studies, Ad-CRE-luc infected hepatocytes (1 pfu per cell) were exposed to glucagon (Gcg, 100 nM) for 2˜4 h. For cyclosporine A (CsA, 10 μM) or okadaic acid (OA, 100 nM) or cell permeable calcineurin autoinhibitory peptide (10 μM) or CN585 (100 μM) or Calyculin A (10 nM) or Xestospongin C (Xc, 2 μM) or H89 (30 μM) or BAPTA (50 μM) inhibition, hepatocytes were pre-treated with the inhibitors for one hour. Luciferase activities were normalized to β-galactosidase activity from adenoviral-encoded RSV β-gal. Calcineurin activity (test kit from Enzo Life Sciences) and cellular cAMP levels (test kit from Cayman Chemical Company) were measured according to manufacturer's instructions.

[2] = test system: IP3-mediated Ca2+ release; details: cited from earlier work

SMILES: C1CCC[C@H]2CCCN3CC[C@@H](CCCCCC[C@@H]4CCCN5CC[C@@H](CC1)O[C@@H]45)O[C@@H]23 [Xestospongin C]
- CRE-luciferase (luc) reporter activity / activation [1]: blocked
- selectivity over the skeletal isoform of the ryanodine receptor type 1 (RyR-1) [2]: high selectivity
- IC50 ([2]; read-out: IC50, blocker of IP3-mediated Ca2+ release): 0.358 µM

From US9771430B2, “Method of treating a metabolic disorder induced by obesity in a subject in need thereof by administering MK2/3 inhibitors” (THE TRUSTEES OF COLUMBIA UNIVERSITY IN THE CITY OF NEW YORK, priority 2011, dated 2017)
